Source: patent publication US11098038B2, “Imidazole-based anticancer agents and derivatives thereof, and methods of making and using same” (The University of Toledo, priority 2017, dated 2021)

Assays:
Assay type in all cases: cell-based
CCRF-CEM = experiment: NCI 60 screen, CCRF-CEM; details: Homo sapiens, Leukemia
Protocol: (§1) The compounds synthesized were tested at the National Cancer Institute (NCI) for anti-proliferative activity in the 60 human tumor cell line assay.

HL-60(TB) = experiment: NCI 60 screen, HL-60(TB); details: Homo sapiens, Leukemia
Protocol: as §1

MOLT-4 = experiment: NCI 60 screen, MOLT-4; details: Homo sapiens, Leukemia
Protocol: as §1

RPMI-8226 = experiment: NCI 60 screen, RPMI-8226; details: Homo sapiens, Leukemia
Protocol: as §1

SR = experiment: NCI 60 screen, SR; details: Homo sapiens, Leukemia
Protocol: as §1

A549/ATCC = experiment: NCI 60 screen, A549/ATCC; details: Homo sapiens, Non-Small Cell Lung
Protocol: as §1

EKVX = experiment: NCI 60 screen, EKVX; details: Homo sapiens, Non-Small Cell Lung
Protocol: as §1

NCI-H226 = experiment: NCI 60 screen, NCI-H226; details: Homo sapiens, Non-Small Cell Lung
Protocol: as §1

NCI-H23 = experiment: NCI 60 screen, NCI-H23; details: Homo sapiens, Non-Small Cell Lung
Protocol: as §1

NCI-460 = experiment: NCI 60 screen, NCI-460; details: Homo sapiens, Non-Small Cell Lung
Protocol: as §1

NCI-H522 = experiment: NCI 60 screen, NCI-H522; details: Homo sapiens, Non-Small Cell Lung
Protocol: as §1

COLO 205 = experiment: NCI 60 screen, COLO 205; details: Homo sapiens, Colon
Protocol: as §1

HCC-2998 = experiment: NCI 60 screen, HCC-2998; details: Homo sapiens, Colon
Protocol: as §1

HCT-116 = experiment: NCI 60 screen, HCT-116; details: Homo sapiens, Colon
Protocol: as §1

HT29 = experiment: NCI 60 screen, HT29; details: Homo sapiens, HT-29, Colon
Protocol: as §1

KM12 = experiment: NCI 60 screen, KM12; details: Homo sapiens, Colon
Protocol: as §1

SW-620 = experiment: NCI 60 screen, SW-620; details: Homo sapiens, Colon
Protocol: as §1

SF-268 = experiment: NCI 60 screen, SF-268; details: Homo sapiens, CNS
Protocol: as §1

U251 = experiment: NCI 60 screen, U251; details: Homo sapiens, U-251, CNS
Protocol: as §1

MDA-MB-435 = experiment: NCI 60 screen, MDA-MB-435; details: Homo sapiens, Melanoma
Protocol: as §1

SK-MEL-2 [1] = experiment: NCI 60 screen, SK-MEL-2 (first line); details: Homo sapiens; Melanoma, SK-MEL-2 (first of two lines so named, r37)
Protocol: as §1

SK-MEL-2 [2] = experiment: NCI 60 screen, SK-MEL-2 (second line); details: Homo sapiens; Melanoma, SK-MEL-2 (second of two lines so named, r38)
Protocol: as §1

SK-MEL-5 = experiment: NCI 60 screen, SK-MEL-5; details: Homo sapiens, Melanoma
Protocol: as §1

UACC-62 = experiment: NCI 60 screen, UACC-62; details: Homo sapiens, Melanoma
Protocol: as §1

OVCAR-3 = experiment: NCI 60 screen, OVCAR-3; details: Homo sapiens, Ovarian
Protocol: as §1

OVCAR-5 = experiment: NCI 60 screen, OVCAR-5; details: Homo sapiens, Ovarian
Protocol: as §1

OVCAR-8 = experiment: NCI 60 screen, OVCAR-8; details: Homo sapiens, Ovarian
Protocol: as §1

SK-OV-3 = experiment: NCI 60 screen, SK-OV-3; details: Homo sapiens, Ovarian
Protocol: as §1

786-0 = experiment: NCI 60 screen, 786-0; details: Homo sapiens, Renal
Protocol: as §1

ACHN = experiment: NCI 60 screen, ACHN; details: Homo sapiens, Renal
Protocol: as §1

CAKI-1 = experiment: NCI 60 screen, CAKI-1; details: Homo sapiens, Renal
Protocol: as §1

RXF393 = experiment: NCI 60 screen, RXF393; details: Homo sapiens, RXF 393, Renal
Protocol: as §1

SN12C = experiment: NCI 60 screen, SN12C; details: Homo sapiens, Renal
Protocol: as §1

TK-10 = experiment: NCI 60 screen, TK-10; details: Homo sapiens, Renal
Protocol: as §1

UO-31 = experiment: NCI 60 screen, UO-31; details: Homo sapiens, Renal
Protocol: as §1

MCF7 = experiment: NCI 60 screen, MCF7; details: Homo sapiens, Breast
Protocol: as §1

MDA-MB-231/ATCC = experiment: NCI 60 screen, MDA-MB-231/ATCC; details: Homo sapiens, Breast
Protocol: as §1

BT-549 = experiment: NCI 60 screen, BT-549; details: Homo sapiens, Breast
Protocol: as §1

HeLa cells = experiment: Mitotic arrest of HeLa cells observed under the microscope; details: 10 μM
Protocol: FIG. 6: Color images showing untreated HeLa cells used as a control. Mitotic duration: 60 minutes. Each frame was taken after 12 minute intervals. Frame 5 to frame 9 show cells' progression through mitosis.
FIG. 7: Color images showing HeLa cells treated with 10 μM of compound 25. Mitotic duration: 27.4 hr.
Although developed as HDAC inhibitors, the compounds herein may actually act by multiple mechanisms. […] Snap shots were taken at a 12 minute interval.
A cell that is rounded up in frame 2 enters mitosis (FIG. 7).

[3] = test system: chromosome alignment, centromeres, and spindle body; experiment: Fluorescence microscopy of chromosome alignment, centromeres and spindle body; details: FIGS. 8A-8B
Source text: FIGS. 8A-8B: Color images showing effects of compound 25 on chromosome alignment, centromeres, and spindle body. Microtubules that make up the mitotic spindle are detected with an antibody linked to a green fluorophore, which was detected with a fluorescence microscope. Centromeres were detected with a far red fluorophore (they are pseudocolored pink). DNA was detected with Hoechst DNA stain, which is blue.
In normal cells (FIG. 8A, upper two panels), chromosomes line up between the spindle poles at metaphase. In cells treated with compound 25 for several hours (FIG. 8A, lower two panels), cells still enter mitosis but centromeres are found all over the cell (not just in the middle between the poles of the spindle). […] However, when ZM is combined with compound 25, what was observed was a very dramatic disruption of spindle architecture. […] Without wishing to be bound by theory, it is believed that both Aurora B and the targets of compound 25 work in parallel to control tubulin function. When either one is inhibited alone, there is no effect since the other pathway compensates. When both are inhibited, the defect is detected.

Compound: O=C(Cc1ccc(/C=C/C(=O)c2ncc[nH]2)cc1)Nc1ccc(Cl)cc1 [Compound 25, (E)-2-(-4 (3-(1H-imidazol-2-yl)-3-oxoprop-1-en-1-yl)phenyl)-N-(4-chlorophenyl)acetamide]
- GI50 (CCRF-CEM): 1.08 µM
- GI50 (HL-60(TB)): 3.8 µM
- GI50 (MOLT-4): 1.8 µM
- GI50 (RPMI-8226): 0.857 µM
- GI50 (SR): 0.798 µM
- GI50 (A549/ATCC): 6.9 µM
- GI50 (EKVX): 5.68 µM
- GI50 (NCI-H226): 7.5 µM
- GI50 (NCI-H23): 2.97 µM
- GI50 (NCI-460): 3.43 µM
- GI50 (NCI-H522): 2.6 µM
- GI50 (COLO 205): 3.01 µM
- GI50 (HCC-2998): 3.73 µM
- GI50 (HCT-116): 0.848 µM
- GI50 (HT29): 0.886 µM
- GI50 (KM12): 1.3 µM
- GI50 (SW-620): 1.43 µM
- GI50 (SF-268): 1.65 µM
- GI50 (U251): 1.02 µM
- GI50 (MDA-MB-435): 4.14 µM
- GI50 (SK-MEL-2 [1]): 5.53 µM
- GI50 (SK-MEL-2 [2]): 4.81 µM
- GI50 (SK-MEL-5): 6.17 µM
- GI50 (UACC-62): 3.94 µM
- GI50 (OVCAR-3): 1.14 µM
- GI50 (OVCAR-5): 3.3 µM
- GI50 (OVCAR-8): 3.65 µM
- GI50 (SK-OV-3): 9.74 µM
- GI50 (786-0): 1.13 µM
- GI50 (ACHN): 4.04 µM
- GI50 (CAKI-1): 4.88 µM
- GI50 (RXF393): 3.05 µM
- GI50 (SN12C): 2.4 µM
- GI50 (TK-10): 5.41 µM
- GI50 (UO-31): 1.69 µM
- GI50 (MCF7): 0.742 µM
- GI50 (MDA-MB-231/ATCC): 4.27 µM
- GI50 (BT-549): 3.46 µM
- Fate of arrested cells (HeLa cells): eventually underwent apoptosis
- Mitotic arrest (progress through cell division) (HeLa cells; monitored for over 27.4 hours): did not proceed with cell division
- Mitotic duration (HeLa cells; untreated control 60 minutes): 27.4 h
- Spindle body / spindle architecture [3]: the spindle body remained intact
- Chromosome alignment / centromere position ([3]; cells treated for several hours): chromosomes were misaligned
